Laboratory results taken from US12662530B2, “Anti-ADM-antibodies binding to the free N-terminus for accelerated transition of ADM-Gly to bio-ADM in patients with ADM-Gly/ bio-ADM ratio above a threshold and combination with vitamin C” (SphingoTec GmbH, priority 2020, dated 2026).

Key:
human native PAM [1] = experiment: Native human PAM activity in human serum with NT- and MR-anti-ADM antibodies; assay type: biochemical; conditions: antibody 100 μg/mL; FIG. 9
Protocol: Human serum was used as source of human native PAM. Each sample (20 μl) was diluted two-fold in 100 mM Tris-HCl in duplicate. The amidation reaction was initiated by addition of 160 μl of NT-ADM antibodies (HAM8101, AK1373, AK1388, AK1398 or AK1434) or MR-ADM antibodies (ADM43, ADM38, ADM41, ADM2901, ADM2902 and ADM2903) containing PAM-reaction buffer (100 mM Tris-HCl, pH 7.5, 6.25 μM CuSO4, 2.5 mM Ascorbate, 125 μg/mL Catalase, 62.5 μM Amastatin, 250 μM Leupeptin, and 36 ng/mL synthetic 1-53 Adrenomedullin-Gly as substrate). The final antibody concentrations were 100 μg/mL, respectively. Afterwards, 100 μl of each individual reaction of duplicated samples were combined and transferred into 20 μl of 200 mM EDTA to terminate the amidation reaction and thus to generate a t=0 minutes reaction time-point followed by incubation at 37° C. for 40 minutes. Afterwards the non-terminated reactions were stopped with 10 μl of 200 mM EDTA. To determine the PAM activity in NT-ADM antibody containing samples, bio-ADM was quantified in each reaction using the Sphingotest® bio-ADM immunoassay (Weber et al. 2017, supra). The MR-ADM antibody containing reaction was transferred to an alternative bio-ADM assay (description below). A control reaction without antibodies was measured in both bio-ADM assays. For each sample the difference between t=40 min and t=0 min bio-ADM concentration was calculated. […]

human native PAM [2] = experiment: bio-ADM maturation activity (AMA) in samples of healthy subjects before and after administration; assay type: in vivo
Protocol: Human serum was used as source of human native PAM. Each sample (20 μl) was diluted two-fold in 100 mM Tris-HCl in duplicate. The amidation reaction was initiated by addition of 160 μl of NT-ADM antibodies (HAM8101, AK1373, AK1388, AK1398 or AK1434) or MR-ADM antibodies (ADM43, ADM38, ADM41, ADM2901, ADM2902 and ADM2903) containing PAM-reaction buffer (100 mM Tris-HCl, pH 7.5, 6.25 μM CuSO4, 2.5 mM Ascorbate, 125 μg/mL Catalase, 62.5 μM Amastatin, 250 μM Leupeptin, and 36 ng/mL synthetic 1-53 Adrenomedullin-Gly as substrate). The final antibody concentrations were 100 μg/mL, respectively. Afterwards, 100 μl of each individual reaction of duplicated samples were combined and transferred into 20 μl of 200 mM EDTA to terminate the amidation reaction and thus to generate a t=0 minutes reaction time-point followed by incubation at 37° C. for 40 minutes. Afterwards the non-terminated reactions were stopped with 10 μl of 200 mM EDTA. To determine the PAM activity in NT-ADM antibody containing samples, bio-ADM was quantified in each reaction using the Sphingotest® bio-ADM immunoassay (Weber et al. 2017, supra). The MR-ADM antibody containing reaction was transferred to an alternative bio-ADM assay (description below). A control reaction without antibodies was measured in both bio-ADM assays. For each sample the difference between t=40 min and t=0 min bio-ADM concentration was calculated. PAM activity is described as ng bio-ADM formed per hour and L of sample and was normalized to the reaction without antibody addition, which was set as 100%.
The formation of bio-ADM from ADM-Gly by recombinant human PAM enzyme and the invivo influence of the N-terminal anti-Adrenomedullin antibody HAM8101 using samples from healthy subjects that received HAM8101 was investigated by measuring the bio-ADM maturation activity (AMA).
Samples from n=3 subjects from each administration group before and 1 hour after administration of HAM8101 were used. Activity was determined as described for Serum samples in example 5b). The assay was calibrated using recombinant human PAM of known activity (InVivo Biotech Services GmbH, Hennigsdorf). Calibrators, controls and samples were treated in the same manner. The produced bio-ADM in the reaction-samples was quantified using the Sphingotest® bio-ADM assay (Weber et al., 2017). For each sample the difference of the t=40 min and t=0 min signal (RLUs, relative light units) was calculated and the signal (RLU(t40−t0 min)) of the calibrator was used to determine the AMA in tested serum samples. AMA is expressed as ng bio-ADM formed per hour and Liter of sample (ng/[h*L]).

recombinant human PAM = experiment: Formation of bio-ADM from ADM-Gly by recombinant human PAM; assay type: biochemical
Protocol: The formation of bio-ADM from c-terminally glycinated 1-53 Adrenomedullin (ADM-Gly) by recombinant human PAM and the influence of the N-terminal anti-Adrenomedullin antibodies on the bio-ADM formation from ADM-Gly by PAM was investigated.
In a first step, 200 μl per well ADM-Gly (50 ng/mL) dissolved in buffer (300 mM potassium-phosphate, 100 mM NaCl, 10 mM Na-EDTA, 5 g/L BSA, pH 7.0) was added to microtiter plate wells that were precoated with an anti-MR-ADM antibody, and were incubated for 1 h at 22° C. under agitation (600 rpm). Unbound material was removed by washing. In a second step, varying concentrations (0-100 μg/mL) of either N-terminal- (HAM8101), C-terminal anti-Adrenomedullin antibody specifically blocking the glycinated C-terminus of ADM-Gly or an unspecific antibody (control antibody) was added to the wells (200 μl per well) for 1 h at 22° C. under agitation (600 rpm). The respective antibodies were diluted in buffer as described above. Unbound antibodies were removed by washing. […] After a final washing step, the remaining chemiluminescence was measured for 1 s per well with a Centro LB 960 microtiter plate luminescence reader (Berthold Technologies). To evaluate the velocity of the enzyme PAM, the signal for bio-ADM measured at t=0 minutes was subtracted from the signal for bio-ADM at t=40 minutes for each antibody concentration. […]

HAM8101: humanized N-terminal anti-ADM antibody, heavy chain SEQ ID No. 35, light chain SEQ ID No. 36
influence on amidating activity compared within the tested antibodies of the same region (human native PAM [1]): showed the strongest influence | AMA increased by (human native PAM [2]; group 1 (0.5 mg/kg), after 1 hour): approximately 60% | AMA increased by (human native PAM [2]; group 1 (0.5 mg/kg), after 4 hours): ~40% | AMA increased by (human native PAM [2]; group 1 (0.5 mg/kg), after 24 hours): ~52% | AMA increased by (human native PAM [2]; group 2 (2 mg/kg), after 1 hour): approximately 27% | AMA increased by (human native PAM [2]; group 2 (2 mg/kg), after 4 hours): ~25% | AMA increased by (human native PAM [2]; group 2 (2 mg/kg), after 24 hours): ~40% | AMA increased by (human native PAM [2]; group 3 (8 mg/kg), after 1 hour): approximately 65% | AMA increased by (human native PAM [2]; group 3 (8 mg/kg), after 4 hours): ~48% | AMA increased by (human native PAM [2]; group 3 (8 mg/kg), after 24 hours): approximately 60% | PAM activity compared to the reaction without antibody addition (set at 100%) (recombinant human PAM; 10 μg/mL antibody, 40 minutes, 37° C., 2 mM L-Ascorbate): 233% | influence on conversion of ADM-Gly to bio-ADM by PAM (recombinant human PAM; antibody 0-100 μg/mL, FIG. 7): significant accelerating effect
